Results: US20160178613A1, “Electrical Cell-substrate Impedance Sensor (ECIS)” (priority 2015, published 2016)

What was measured:
MCF-7 cells = experiment: SiNW-ECIS electrical impedance/capacitance response of MCF-7 cells treated with antitubulin drugs; format: cell-based, human; settings: PTX 0.1 nano-moles per liter; for changes in membrane impedance vs control sample (normalized, mean) / variations in capacitance of the sensor vs control sample (normalized): MCF-7, 2 hours (T1) after drug incubation; for changes in membrane impedance vs control sample (normalized, mean) / variations in capacitance of the sensor vs control sample (normalized) / change in norm of impedance of treated cells, T1 vs T2 / changes in electrical impedance with respect to control sample / norm of capacitive changes, control sample more than drug value: ABZ 2.1 nano-moles per liter; for changes in electrical impedance with respect to control sample / norm of capacitive changes, control sample more than drug value: MCF-7, 6 hours (T2) after drug incubation
Experimental: In this example, the diagnostic response of cells membrane to extremely low dose of antitubulin drugs is investigated. Initially, MCF-7 cell lines, isolated from grade I human breast tumors, were obtained from the National Cell Bank of Iran (Pasteur Institute). Then, cells were maintained in a CO2 incubator (37° C., 5% CO2) in RPMI-1640 medium supplemented with 5% fetal bovine serum, and 1% penicillin/streptomycin. The fresh medium was replaced every other day. Then, the cultured cells were dropped on the surface of the SiNW-ECIS, designed and fabricated pursuant to teachings of the present application. Prior to each experiment, cells were trypsinized to be detached from the substrate and resuspended on the SiNW surface. To minimize the effect of trypsinization, the procedure may last for less than 4 minutes at room temperature of about 20° C. The samples were held in an incubator for about 4 hours to achieve cells attachment on the SiNWs. Thereafter, the ABZ drug with low concentrations of about 2.1 nano-moles per liter and the PTX drug with low concentrations of about 0.1 nano-moles per liter were added to individual samples. Finally, the signal recording and biological assays were investigated about 2 hours and 6 hours after the drug treatment (6 hours and 10 hours after the beginning of culturing process).
Referring to FIGS. 12A-12G, comparative normalized diagrams of impedance (designated by ΔZ % and represented by solid black lines) and capacitance changes (designated by ΔC % and represented by dashed grey lines) are illustrated for MCF-7 cells seeded on SiNW electrodes after treating by 2.1 nano-moles per liter of ABZ and 0.1 nano-moles per liter of PTX. The time interval between the drug incubation and the signal extraction are 2 hours (designated by T1) and 6 hours (designated by T2). In addition, the same diagrams are plotted for control sample prepared with no drug treatment stage.
According to the method described in the present example, the samples were maintained in an incubator so that the signal extraction was repeated 10 hours after cells dropping (6 hours after drug incubation for treated samples) to monitor the time evolution of drug induced MT polymerization/depolymerization on bioelectrical response of the membrane.

[1] = system: tubulin assemblies of MCF-7 cells; experiment: Confocal microscopy of tubulin assemblies of MCF-7 cells; format: cell-based, human; settings: ABZ 2.1 nano-moles per liter, PTX 0.1 nano-moles per liter
Experimental: In addition, an un-treated control sample was prepared as reference for comparison. Then, samples were washed with PBS and permeabilized with microtubule stabilizing buffer [80 mM PIPES-KOH (pH 6.8), 5 mM EGTA, and 1 mM MgCl2 containing 0.5% Triton X-100] for 5 min at room temperature before being fixed with chilled absolute methanol for 10 min at −20° C. Thereafter, the fixed cells were washed and incubated with monoclonal mouse anti-α-tubulin antibody (Sigma Co.) for 1 hour at room temperature followed by incubation with FITC-conjugated antimouse IgG antibody (Santa Cruz Biotechnology). The stained cells were mounted with Vectashield (Vector Laboratories, Burlingame, Calif.) and observed by confocal microscopy.

[2] = MCF-7, 2 hours vs 6 hours after drug incubation

| SMILES | changes in membrane impedance vs control sample (normalized, mean) (MCF-7 cells) | variations in capacitance of the sensor vs control sample (normalized) (MCF-7 cells) | change in norm of impedance of treated cells, T1 vs T2 (MCF-7 cells; [2]) | changes in electrical impedance with respect to control sample (MCF-7 cells) | norm of capacitive changes, control sample more than drug value (MCF-7 cells) | spindle / microtubule morphology in confocal image ([1]; MCF-7, 2 hours after treatment) | spindle / microtubule morphology in confocal image ([1]; MCF-7, 6 hours after treatment) | time dependent variation in capacitive behavior, T1 vs T2 (MCF-7 cells; [2]) |
| --- | --- | --- | --- | --- | --- | --- | --- | --- |
| CCCSc1ccc2nc(NC(=O)OC)[nH]c2c1 [ABZ, Albendazole] | 25% | 70% | about 60% | about 90% | about 90% | abnormally reduced numbers of spindles or monopolar (monoaster) spindles | still the monoastered MTs are observable | – |
| CC(=O)O[C@H]1C(=O)[C@@]2(C)[C@H]([C@H](OC(=O)c3ccccc3)[C@]3(O)C[C@H](OC(=O)[C@H](O)[C@@H](NC(=O)c4ccccc4)c4ccccc4)C(C)=C1C3(C)C)[C@]1(OC(C)=O)CO[C@@H]1C[C@@H]2O [PTX, Paclitaxel] | about 50% | about 60% | 15% | about 30% | ~75% | aggregated spindles | increased aggregation in MT spindles | about 85% |
